Laboratory results: patent US8987314B2, “Amide, urea or sulfone amide linked benzothiazole inhibitors of endothelial lipase” (Bristol-Myers Squibb Company, priority 2012, dated 2015)
Read-outs that look alike come from different tables or passages of the source.

What was measured:
[1] = biological target: Endothelial lipase (EL) (Homo sapiens (Human), UniProt Q9Y5X9); assay: EL assay: endothelial lipase activity with fluorescent substrate A10070 in DMPG vesicles; assay type: biochemical
Description: (§1) Endothelial lipase (EL) and hepatic lipase (HL) activities were measured using a fluorescent substrate, A10070, (Invitrogen, CA) doped into an artificial vesicle containing DMPG (Avanti Polar Lipids) as the excipient. Vesicles were prepared by combining 571 μL of 29 mM DMPG in a 1:1 mixture of MeOH and CHCl3 with 2000 μL of 1 mM A10070 in a 1:1 mixture of MeOH and CHCl3. The mixture was dried under nitrogen in multiple vials then resuspended in 20 mL total volume of 50 mM HEPES pH 8.0 buffer containing 50 mM NaCl and 0.2 mM EDTA. The sample was allowed to sit at room temperature for 15 min and then was sonicated 3×4 mins on ice with a Branson Sonicator using duty cycle 1. This preparation provides vesicles with a mole fraction of 0.11 for the FRET substrate.
(§2) The enzymatic assay was measured using 384-well white Optiplates. Each well contained 20 μL of assay buffer (50 mM HEPES pH 8.0, 50 mM NaCl and 1 mM CaCl2) and 0.25 μL of a DMSO solution containing a compound of interest. EL or HL (10 μL) was added and allowed to incubate with the compound for 30 min at 37° C. The source of EL was conditioned media obtained from HT-1080 cells that were transformed using RAGE technology (Athersys) to overexpress endogenous EL, and HL was partially purified from conditioned media obtained from COS cells overexpressing HL. The reaction was started by the addition of 10 μL of a 1:10 dilution of vesicles. The final total reaction volume was […]. The reaction rates were measured on a Gemini plate reader with an excitation wavelength of 490 nm and an emission wavelength of 530 nm. Readings were taken over a period of 60 minutes, and the slope between 300 and 900 secs of the readout was used to calculate the rate of the reaction.

[2] = biological target: hepatic lipase (HL) (Homo sapiens (Human), UniProt P11150); assay: HL assay: hepatic lipase activity with fluorescent substrate A10070 in DMPG vesicles; assay type: biochemical
Description: as §1, §2

[3] = EL from conditioned media of HT-1080 cells, 30 min incubation with compound at 37° C., A10070/DMPG vesicles

Sequence of Endothelial lipase (EL) (Q9Y5X9 21-500): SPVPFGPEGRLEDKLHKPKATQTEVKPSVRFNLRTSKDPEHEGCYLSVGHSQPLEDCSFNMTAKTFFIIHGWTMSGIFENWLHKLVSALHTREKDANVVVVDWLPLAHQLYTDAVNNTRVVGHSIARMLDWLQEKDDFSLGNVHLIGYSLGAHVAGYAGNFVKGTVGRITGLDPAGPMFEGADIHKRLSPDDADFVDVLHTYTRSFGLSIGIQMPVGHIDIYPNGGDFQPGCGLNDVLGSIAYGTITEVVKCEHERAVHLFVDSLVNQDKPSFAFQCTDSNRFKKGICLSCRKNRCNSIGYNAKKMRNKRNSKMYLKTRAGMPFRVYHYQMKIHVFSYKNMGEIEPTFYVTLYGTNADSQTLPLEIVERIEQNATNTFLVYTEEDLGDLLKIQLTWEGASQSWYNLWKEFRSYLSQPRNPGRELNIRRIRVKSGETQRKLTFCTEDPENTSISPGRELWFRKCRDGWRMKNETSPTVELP
Sequence of hepatic lipase (HL) (P11150 23-499, species assumed): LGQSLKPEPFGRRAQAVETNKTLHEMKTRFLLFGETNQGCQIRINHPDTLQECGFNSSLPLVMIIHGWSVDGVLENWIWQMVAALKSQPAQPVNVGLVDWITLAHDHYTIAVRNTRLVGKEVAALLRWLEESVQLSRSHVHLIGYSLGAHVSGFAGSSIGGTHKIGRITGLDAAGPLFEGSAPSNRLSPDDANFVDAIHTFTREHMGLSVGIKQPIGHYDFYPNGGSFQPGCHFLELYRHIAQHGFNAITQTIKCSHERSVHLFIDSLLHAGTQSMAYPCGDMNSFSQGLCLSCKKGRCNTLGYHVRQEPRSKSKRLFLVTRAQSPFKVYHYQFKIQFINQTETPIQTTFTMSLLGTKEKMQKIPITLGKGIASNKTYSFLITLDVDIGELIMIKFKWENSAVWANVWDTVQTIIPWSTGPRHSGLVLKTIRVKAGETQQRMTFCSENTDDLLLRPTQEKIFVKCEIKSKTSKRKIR

| Compound | IC50 [1] | IC50 [2] | IC50 [1, 3] | IC50 ([2]; HL partially purified from conditioned media of COS cells, 30 min incubation with compound at 37° C., A10070/DMPG vesicles) |
| --- | --- | --- | --- | --- |
| 2-[6-(2-fluorophenyl)-1,3- benzothiazol-2-yl]-N-(2- sulfamoylethyl)-2-(3,3,3- trifluoropropanesulfonyl)a- cetamide [Example B307] | 3 nM | 1.5 nM | – | – |
| 2-[6-(3-fluoro-2-hydroxy- pyridin-4-yl)-1,3- benzothiazol-2-yl]-N-(2- sulfamoylethyl)-2-{[4- (trifluoromethoxy)phen- yl]methanesulfonyl}a- cetamide [Example B376] | 7.1 nM | 4700 nM | – | – |
| CS(=O)(=O)C(C(=O)NCCS(=O)(=O)Nc1ccccc1)c1nc2ccc(-c3ccnc(F)c3)cc2s1 (stereo not drawn) [Example B24, 2-(6-(2-fluoro-4-pyridinyl)-1,3-benzothiazol-2-yl)-2-(methylsulfonyl)-N-(2-(phenylsulfamoyl)ethyl)acetamide] | – | – | 35 nM | – |
| NS(=O)(=O)CCNC(=O)C(c1nc2c(F)cc(-c3ccccc3)cc2s1)S(=O)(=O)CCC(F)(F)F (stereo not drawn) [Example B26, 2-(4-Fluoro-6-phenylbenzo[d]thiazol-2-yl)-N-(2-sulfamoylethyl)-2-((3,3,3-trifluoropropyl)sulfonyl)acetamide] | – | – | < 10 nM | – |
| NC(=O)c1ccc(-c2cc3sc(C(C(=O)N[C@@H]4CCNC4=O)S(=O)(=O)Cc4ccccc4)nc3cc2F)cc1 (stereo partly drawn) [Example B27, 4-(2-(1-(benzylsulfonyl)-2-oxo-2-(((3R)-2-oxo-3-pyrrolidinyl)amino)ethyl)-5-fluoro-1,3-benzothiazol-6-yl)benzamide] | – | – | 93 nM | – |
| Cc1nnc(CNC(=O)C(c2nc3cc(C)c(-c4ccccc4)cc3s2)S(=O)(=O)Cc2ccccc2)o1 (stereo not drawn) [Example B28, 2-(benzylsulfonyl)-N-((5-methyl-1,3,4-oxadiazol-2-yl)methyl)-2-(5-methyl-6-phenyl-1,3-benzothiazol-2-yl)acetamide] | – | – | 12 nM | – |
| CS(=O)(=O)C(C(=O)NCCS(=O)(=O)NCC(F)(F)F)c1nc2ccc(-c3ccnc(F)c3)cc2s1 (stereo not drawn) [Example B30, 2-(6-(2-Fluoro-4-pyridinyl)-1,3-benzothiazol-2-yl)-2-(methylsulfonyl)-N-(2-((2,2,2-trifluoroethyl)sulfamoyl)ethyl)acetamide] | – | – | 277 nM | – |
| CC(C)(C)NC(=O)c1ccc(-c2ccc3nc(C(C(=O)NCCS(N)(=O)=O)S(C)(=O)=O)sc3c2)cc1 (stereo not drawn) [Example B31, N-tert-Butyl-4-(2-(1-(methylsulfonyl)-2-oxo-2-((2-sulfamoylethyl)amino)ethyl)-1,3-benzothiazol-6-yl)benzamide] | – | – | < 10 nM | 257 nM |
| CS(=O)(=O)C(C(=O)NCCS(N)(=O)=O)c1nc2ccc(-c3ccc(C(=O)N4CCOCC4)c(Cl)c3)cc2s1 (stereo not drawn) [Example B32, 2-(6-(3-chloro-4-(4-morpholinylcarbonyl)phenyl)-1,3-benzothiazol-2-yl)-2-(methylsulfonyl)-N-(2-sulfamoylethyl)acetamide] | < 10 nM | 923 nM | – | – |
| Cc1cc(-c2ccc3nc(C(C(=O)NCCS(N)(=O)=O)S(C)(=O)=O)sc3c2)cnc1F (stereo not drawn) [Example B33, 2-(6-(6-fluoro-5-methyl-3-pyridinyl)-1,3-benzothiazol-2-yl)-2-(methylsulfonyl)-N-(2-sulfamoylethyl)acetamide] | 14 nM | 22 nM | – | – |
| CS(=O)(=O)C(C(=O)NCCS(N)(=O)=O)c1nc2ccc(-c3cnn(CCN4CCOCC4)c3)cc2s1 (stereo not drawn) [Example B34, 2-(methylsulfonyl)-2-(6-(1-(2-(4-morpholinyl)ethyl)-1H-pyrazol-4-yl)-1,3-benzothiazol-2-yl)-N-(2-sulfamoylethyl)acetamide] | < 10 nM | 313 nM | – | – |
| COCCNC(=O)c1ccc(-c2ccc3nc(C(C(=O)NCCS(N)(=O)=O)S(C)(=O)=O)sc3c2)cc1 (stereo not drawn) [Example B35, N-(2-methoxyethyl)-4-(2-{1-(methylsulfonyl)-2-oxo-2-[(2-sulfamoylethyl)a-mino]ethyl}-1,3-benzothiazol-6-yl)ben-zamide] | < 10 nM | 43 nM | – | – |
| CS(=O)(=O)C(C(=O)NCCS(N)(=O)=O)c1nc2ccc(-c3ccc(F)cc3)cc2s1 (stereo not drawn) [Example B36, 2-(6-(4-fluorophenyl)-1,3-benzothiazol-2-yl)-2-(methylsulfonyl)-N-(2-sulfamoylethyl)acetamide] | < 10 nM | < 10 nM | – | – |
| CS(=O)(=O)C(C(=O)NCCS(N)(=O)=O)c1nc2ccc(-c3cccc(F)c3)cc2s1 (stereo not drawn) [Example B37, 2-(6-(3-fluorophenyl)-1,3-benzothiazol-2-yl)-2-(methylsulfonyl)-N-(2-sulfamoylethyl)acetamide] | < 10 nM | < 10 nM | – | – |
| CS(=O)(=O)C(C(=O)NCCS(N)(=O)=O)c1nc2ccc(-c3ccc4c(c3)OCO4)cc2s1 (stereo not drawn) [Example B38, 2-(6-(1,3-benzodioxol-5-yl)-1,3-benzothiazol-2-yl)-2-(methylsulfonyl)-N-(2-sulfamoylethyl)acetamide] | < 10 nM | < 10 nM | – | – |
| CS(=O)(=O)C(C(=O)NCCS(N)(=O)=O)c1nc2ccc(-c3ccc(OC(F)(F)F)cc3)cc2s1 (stereo not drawn) [Example B39, 2-(methylsulfonyl)-N-(2-sulfamoylethyl)-2-(6-(4-(trifluoromethoxy)phenyl)-1,3-benzothiazol-2-yl)acetamide] | < 10 nM | < 10 nM | – | – |
| CS(=O)(=O)C(C(=O)NCCS(N)(=O)=O)c1nc2ccc(-c3ccc(C(=O)NCCO)cc3)cc2s1 (stereo not drawn) [Example B40, N-(2-hydroxyethyl)-4-(2-(1-(methylsulfonyl)-2-oxo-2-((2-sulfamoylethyl)a-mino)ethyl)-1,3-benzothiazol-6-yl)ben-zamide] | < 10 nM | 19 nM | – | – |
| CS(=O)(=O)C(C(=O)NCCS(N)(=O)=O)c1nc2ccc(-c3ccc(C(=O)NCC(F)(F)F)cc3)cc2s1 (stereo not drawn) [Example B41, 4-(2-(1-(methylsulfonyl)-2-oxo-2-((2-sulfamoylethyl)a-mino)ethyl)-1,3-benzothiazol-6-yl)-N-(2,2,2-trifluoroethyl)ben-zamide] | < 10 nM | 17 nM | – | – |
| CS(=O)(=O)C(C(=O)NCCS(N)(=O)=O)c1nc2ccc(-c3ccc(OCCN4CCCCC4)cc3)cc2s1 (stereo not drawn) [Example B42, 2-(methylsulfonyl)-2-(6-(4-(2-(1-piperidinyl)ethoxy)phen-yl)-1,3-benzothiazol-2-yl)-N-(2-sulfamoylethyl)a-cetamide] | < 10 nM | 10 nM | – | – |
| CC1CCN(C(=O)c2ccc(-c3ccc4nc(C(C(=O)NCCS(N)(=O)=O)S(C)(=O)=O)sc4c3)cc2)CC1 (stereo not drawn) [Example B43, 2-(6-{4-[(4-methyl-1-piperidinyl)carbonyl]phen-yl}-1,3-benzothiazol-2-yl)-2-(methylsulfonyl)-N-(2-sulfamoylethyl)a-cetamide] | < 10 nM | < 10 nM | – | – |
| CC(=O)Nc1ccc(-c2ccc3nc(C(C(=O)NCCS(N)(=O)=O)S(=O)(=O)Cc4ccccc4)sc3c2)cc1 (stereo not drawn) [Example B44, 2-(6-(4-acetamidophenyl)-1,3-benzothiazol-2-yl)-2-(benzylsulfonyl)-N-(2-sulfamoylethyl)acetamide] | < 10 nM | 148 nM | – | – |
| NS(=O)(=O)CCNC(=O)C(c1nc2ccc(-c3ccc(C(=O)NCC(F)(F)F)cc3)cc2s1)S(=O)(=O)CCC(F)(F)F (stereo not drawn) [Example B45, 4-(2-(2-oxo-2-((2-sulfamoylethyl)amino)-1-((3,3,3-trifluoropropyl)sul-fonyl)ethyl)-1,3-benzothiazol-6-yl)-N-(2,2,2-trifluoroethyl)ben-zamide] | < 10 nM | 38 nM | – | – |
| NS(=O)(=O)CCNC(=O)C(c1nc2ccc(-c3ccc(C(=O)NCCO)cc3)cc2s1)S(=O)(=O)CCC(F)(F)F (stereo not drawn) [Example B46, N-(2-hydroxyethyl)-4-(2-(2-oxo-2-((2-sulfamoylethyl)amino)-1-((3,3,3-trifluoropropyl)sul-fonyl)ethyl)-1,3-benzothiazol-6-yl)ben-zamide] | < 10 nM | 520 nM | – | – |
| CS(=O)(=O)C(C(=O)NCCS(N)(=O)=O)c1nc2ccc(-c3ccc(CCO)cc3)cc2s1 (stereo not drawn) [Example B47, 2-(6-(4-(2-hydroxyethyl)phenyl)-1,3-benzothiazol-2-yl)-2-(methylsulfonyl)-N-(2-sulfamoylethyl)acetamide] | < 10 nM | 35 nM | – | – |
| C=CCC(C(=O)NCCS(N)(=O)=O)c1nc2ccc(-c3ccccc3)cc2s1 (stereo not drawn) [Reference 1, 2-(6-Phenyl-1,3-benzothiazol-2-yl)-N-(2-sulfamoylethyl)-4-pentenamide, reference compound] | 9400 nM | – | – | – |
| CC(C)c1cc(CNC(=O)C(C)(C)c2nc3ccc(-c4ccccc4)cc3s2)on1 [Reference 2, N-((3-isopropylisoxazol-5-yl)methyl)-2-methyl-2-(6-phenylbenzo[d]thiazol-2-yl)propanamide, reference compound] | – | – | > 62000 nM | – |
